The target in the experiment is T1, NCC69 (HA:NCC69) (Drosophila melanogaster, UniProt Q9VTW8).
T1 sequence (Q9VTW8 1-1171): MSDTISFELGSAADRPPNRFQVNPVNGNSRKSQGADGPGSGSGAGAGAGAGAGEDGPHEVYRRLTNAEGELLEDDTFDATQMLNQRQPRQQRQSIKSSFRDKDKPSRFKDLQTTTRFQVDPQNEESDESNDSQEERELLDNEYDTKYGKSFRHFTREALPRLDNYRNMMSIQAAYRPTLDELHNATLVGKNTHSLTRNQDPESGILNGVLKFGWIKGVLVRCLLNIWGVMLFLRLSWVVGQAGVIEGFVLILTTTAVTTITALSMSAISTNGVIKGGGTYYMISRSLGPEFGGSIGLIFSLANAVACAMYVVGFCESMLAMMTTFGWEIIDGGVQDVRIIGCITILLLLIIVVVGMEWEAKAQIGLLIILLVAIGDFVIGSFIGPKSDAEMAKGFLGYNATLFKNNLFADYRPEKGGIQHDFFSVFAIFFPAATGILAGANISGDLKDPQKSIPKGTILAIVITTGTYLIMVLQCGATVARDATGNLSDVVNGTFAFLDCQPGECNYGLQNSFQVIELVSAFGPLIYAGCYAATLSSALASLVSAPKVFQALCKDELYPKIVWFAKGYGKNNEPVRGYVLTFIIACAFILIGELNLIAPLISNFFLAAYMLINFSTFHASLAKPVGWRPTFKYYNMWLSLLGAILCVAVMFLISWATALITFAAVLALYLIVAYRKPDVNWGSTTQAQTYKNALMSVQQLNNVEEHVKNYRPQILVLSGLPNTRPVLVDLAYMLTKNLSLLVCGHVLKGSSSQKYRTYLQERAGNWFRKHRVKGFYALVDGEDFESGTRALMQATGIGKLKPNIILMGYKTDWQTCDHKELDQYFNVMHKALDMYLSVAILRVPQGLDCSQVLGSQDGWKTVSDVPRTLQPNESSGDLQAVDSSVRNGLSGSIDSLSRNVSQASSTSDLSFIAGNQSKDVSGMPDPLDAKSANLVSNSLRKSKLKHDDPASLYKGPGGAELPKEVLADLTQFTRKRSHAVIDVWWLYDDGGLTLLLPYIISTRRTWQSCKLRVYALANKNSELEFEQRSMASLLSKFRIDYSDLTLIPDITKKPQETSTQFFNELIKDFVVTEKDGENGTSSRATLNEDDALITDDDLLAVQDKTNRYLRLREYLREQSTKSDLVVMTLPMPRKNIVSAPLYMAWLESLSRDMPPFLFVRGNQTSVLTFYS
Kind of experiment: […] influx inhibition in stably transfected SL2 cells. In kind it is cell-based.

The values that follow come from publication PMC3005002 (Glia, 2011).

pKi: −log10 of the molar value.

As usually defined, the pKi is −log10 of the Ki, conventionally taken in molar units.

`CCCCNc1cc(C(=O)O)cc(S(N)(=O)=O)c1Oc1ccccc1` [bumetanide] had a pKi of 7.31.
